Assays:
[1] = Cytotoxicity against human HuH7 cells assessed as cell viability at 500 uM after 24 hrs by MTT assay relative to control; format: cell-based, Huh-7
[2] = Cytotoxicity against human HET-1A cells assessed as cell viability at 500 uM after 24 hrs by MTT assay relative to control; format: cell-based
[3] = Cytotoxicity against human HET-1A cells assessed as cell viability after 24 hrs by MTT assay; format: cell-based
[4] = Cytotoxicity against human HET-1A cells assessed as cell viability at >1 mM after 24 hrs by MTT assay; format: cell-based

SMILES	viability at 24 h, 500 µM [1] [%]	viability at 24 h, 500 µM [2] [%]	CC50 at 24 h [3] [µM]	Activity [4]
C[C@H](CCCO)[C@H]1CC[C@H]2[C@@H]3[C@@H](O)C[C@@H]4C[C@H](O)CC[C@]4(C)[C@H]3CC[C@]12C	44.5	97.5	–	–
C[C@H](CCCN=[N+]=[N-])[C@H]1CC[C@H]2[C@@H]3[C@@H](O)C[C@@H]4C[C@H](O)CC[C@]4(C)[C@H]3CC[C@]12C	45.1	75.9	688	–
C[C@H](CCC(N)=O)[C@H]1CC[C@H]2[C@@H]3CC[C@@H]4C[C@H](O)CC[C@]4(C)[C@H]3C[C@H](O)[C@]12C	25.2	38.6	39	–
C[C@H](CCC(=O)O)[C@H]1CC[C@H]2[C@@H]3CC[C@@H]4C[C@H](N=[N+]=[N-])CC[C@]4(C)[C@H]3C[C@H](O)[C@]12C	37.1	30.7	71	–
C[C@H](CCC(=O)O)[C@H]1CC[C@H]2[C@@H]3CC[C@@H]4C[C@@H](N=[N+]=[N-])CC[C@]4(C)[C@H]3C[C@H](O)[C@]12C	108	35.4	97	–
C[C@H](CCC(=O)O)[C@H]1CC[C@H]2[C@@H]3CC[C@@H]4C[C@H](O)CC[C@]4(C)[C@H]3CC(=O)[C@]12C	80.6	81.8	–	–
C[C@H](CCC(=O)O)[C@H]1CC[C@H]2[C@@H]3C(=O)C[C@@H]4C[C@H](O)CC[C@]4(C)[C@H]3CC[C@]12C	75.6	76.9	–	–
CC(=O)O[C@@H]1CC[C@@]2(C)[C@H](CC(=O)[C@@H]3[C@@H]2CC[C@]2(C)[C@@H]([C@H](C)CCC(=O)O)CC[C@@H]32)C1	77.7	47.2	366	–
C[C@H](CCC(=O)O)[C@H]1CC[C@H]2[C@@H]3C(=O)C[C@@H]4CC(=O)CC[C@]4(C)[C@H]3CC[C@]12C	54.6	93.5	–	–
C[C@H](CCC(=O)O)[C@H]1CC[C@H]2[C@@H]3[C@@H](N=[N+]=[N-])C[C@@H]4C[C@H](O)CC[C@]4(C)[C@H]3CC[C@]12C	64.1	29	99	–
C[C@H](CCC(=O)O)[C@H]1CC[C@H]2[C@@H]3[C@@H](O)C[C@@H]4C[C@H](O)CC[C@]4(C)[C@H]3C[C@H](O)[C@]12C	82.3	80.8	–	–
COC(=O)CC[C@@H](C)[C@H]1CC[C@H]2[C@@H]3[C@@H](O)C[C@@H]4C[C@H](O)CC[C@]4(C)[C@H]3CC[C@]12C	81.2	94.3	–	–
C[C@H](CCC(=O)O)[C@H]1CC[C@H]2[C@@H]3[C@@H](O)C[C@@H]4C[C@H](N=[N+]=[N-])CC[C@]4(C)[C@H]3CC[C@]12C	26.6	36.8	45	–
C[C@H](CCC(=O)O)[C@H]1CC[C@H]2[C@@H]3[C@@H](O)C[C@@H]4C[C@@H](N=[N+]=[N-])CC[C@]4(C)[C@H]3CC[C@]12C	101	30.3	37	–
C[C@H](CCC(=O)O)[C@H]1CC[C@H]2[C@@H]3[C@@H](O)C[C@@H]4CCCC[C@]4(C)[C@H]3CC[C@]12C	23.7	39.9	30	–
C[C@H](C(=O)O)[C@H]1CC[C@H]2[C@@H]3[C@@H](O)C[C@@H]4C[C@H](O)CC[C@]4(C)[C@H]3CC[C@]12C	74.8	80.5	799	–

SMILES	viability at 24 h, 500 µM [1] [%]	viability at 24 h, 500 µM [2] [%]	CC50 at 24 h [3] [µM]	Activity [4]
C[C@H](CCC#N)[C@H]1CC[C@H]2[C@@H]3[C@@H](O)C[C@@H]4C[C@H](O)CC[C@]4(C)[C@H]3CC[C@]12C	85.2	94	–	–
C[C@H](C#N)[C@H]1CC[C@H]2[C@@H]3[C@@H](O)C[C@@H]4C[C@H](O)CC[C@]4(C)[C@H]3CC[C@]12C	87.3	80.5	–	–
C[C@H](CCC(=O)O)[C@H]1CC[C@H]2[C@@H]3[C@H](O)C[C@@H]4C[C@H](O)CC[C@]4(C)[C@H]3CC[C@]12C [CHENODIOL]	72.3	42.2	216	–
C[C@H](CCC(=O)O)[C@H]1CC[C@H]2[C@@H]3[C@H](O)C[C@@H]4C[C@H](O)CC[C@]4(C)[C@H]3C[C@H](O)[C@]12C [CHOLIC ACID]	90.8	102	1080	–
C[C@H](CCC(=O)O)[C@H]1CC[C@H]2[C@@H]3C(=O)C[C@@H]4CC(=O)CC[C@]4(C)[C@H]3CC(=O)[C@]12C [DEHYDROCHOLIC ACID]	54.4	111	–	–
C[C@H](CCC(=O)O)[C@H]1CC[C@H]2[C@@H]3CC[C@@H]4C[C@H](O)CC[C@]4(C)[C@H]3C[C@H](O)[C@]12C [DEOXYCHOLIC ACID]	57	41.2	257	–
C[C@H](CCC(=O)NCC(=O)O)[C@H]1CC[C@H]2[C@@H]3[C@H](O)C[C@@H]4C[C@H](O)CC[C@]4(C)[C@H]3CC[C@]12C [GLYCOCHENODEOXYCHOLATE]	105	130	729	Toxic
C[C@H](CCC(=O)NCC(=O)O)[C@H]1CC[C@H]2[C@@H]3[C@H](O)C[C@@H]4C[C@H](O)CC[C@]4(C)[C@H]3C[C@H](O)[C@]12C [GLYCOCHOLIC ACID]	87.7	105	–	–
C[C@H](CCC(=O)NCC(=O)O)[C@H]1CC[C@H]2[C@@H]3CC[C@@H]4C[C@H](O)CC[C@]4(C)[C@H]3C[C@H](O)[C@]12C [GLYCODEOXYCHOLATE]	105	111	1240	Toxic
C[C@H](CCC(=O)NCC(=O)O)[C@H]1CC[C@H]2[C@@H]3[C@@H](O)C[C@@H]4C[C@H](O)CC[C@]4(C)[C@H]3CC[C@]12C [GLYCOURSODEOXYCHOLIC ACID]	104	109	–	–
C[C@H](CCC(=O)O)[C@H]1CC[C@H]2[C@@H]3C[C@H](O)[C@@H]4C[C@H](O)CC[C@]4(C)[C@H]3CC[C@]12C [HYODEOXYCHOLIC_ACID]	73.8	88.2	–	–
C[C@H](CCC(=O)O)[C@H]1CC[C@H]2[C@@H]3CC[C@@H]4C[C@H](O)CC[C@]4(C)[C@H]3C[C@@H](O)[C@]12C [LAGODEOXYCHOLATE]	89	59	389	–
C[C@H](CCC(=O)O)[C@H]1CC[C@H]2[C@@H]3CC[C@@H]4C[C@H](O)CC[C@]4(C)[C@H]3CC[C@]12C [LITHOCHOLIC ACID]	63.7	41.7	25	–
COC(=O)CC[C@@H](C)[C@H]1CC[C@H]2[C@@H]3CC[C@@H]4C[C@H](O)CC[C@]4(C)[C@H]3C[C@H](O)[C@]12C [METHYL DEOXYCHOLATE]	48.8	28.1	46	–
C[C@H](CC(=O)O)[C@H]1CC[C@H]2[C@@H]3[C@@H](O)C[C@@H]4C[C@H](O)CC[C@]4(C)[C@H]3CC[C@]12C [NORUCHOLIC ACID]	71.8	88.8	–	–
C[C@H](CCC(=O)O)[C@H]1CC[C@H]2[C@@H]3[C@@H](O)C[C@@H]4C[C@H](O)CC[C@]4(C)[C@H]3CC[C@]12C [URSODIOL]	74	78.8	1310	–

From ChEMBL document CHEMBL1250512, “Bile acid toxicity structure-activity relationships: correlations between cell viability and lipophilicity in a panel of new and known bile acids using an oesophageal cell line (HET-1A)” (Bioorg Med Chem, 2010)
